Data reported in PMC5267425, “Identification of small molecule modulators of HIV-1 Tat and Rev protein accumulation” (Retrovirology, 2017).

Tested on: alternative splicing of host transcripts in HeLa rtTA HIV∆Mls cells
Assay: RT-PCR of host alternative splicing events (PSI), capillary electrophoresis
Format: cell-based
Procedure: To assess the effect of compounds on expression/alternative splicing of cellular RNA, two approaches were used. For both, total RNA was prepared from DMSO or compound-treated cells. In the first assay, samples were assayed by medium throughput RT-PCR to determine the inclusion levels of alternatively spliced exons and splice sites located in 73 selected events. 73 primer sets containing a fluorescently (5-FAM) labeled primer for each, were used in RT-PCR. PCR products generated were denatured in formamide and quantified using ABI Prism capillary sequencer (Life Technologies). The fragment analysis was performed on the PeakScanner software (Life Technologies) in batch mode and automated using custom scripts written in Python. The inclusion level of each exon was calculated as the amount of transcripts carrying the alternative exon relative to the total amount of all transcripts detected in the PCR reaction and results are summarized for compound-treatment in comparison to DMSO treatment. In the second assay, extracted RNA was processed using the Illumina TruSeq RNA Sample Preparation Kit (Illumina) according to the manufacturer’s instructions. The cDNA library generated was validated (passed quality control on a Bioanalyzer 1000 DNA chip (Agilent)), normalized and pooled for cluster generation. cDNA libraries were sequenced on the Illumina HiSeq 2500 (paired-end, 125 bp) with version 4 chemistry following manufacturer’s protocols. The full human genome and transcriptomic sequences were downloaded from the UCSC Genome Browser (genome.ucsc.edu) database and Ensembl (www.ensembl.org), respectively, as described by Irimia et al.. Exon annotations and genomic coordinates for alternative splicing (AS) analysis were derived from tables downloaded from the UCSC Genome Browser database. To determine gene expression (GE) or alternative splicing (AS) changes in an unbiased way, the effective number of unique mappable positions in each transcript (i.e. the effective length) was determined by aligning sequences with unique transcriptomic alignment to the human genome using Bowtie. Reads with one unique genomic alignment were then aligned against the canonical transcriptome and, for each transcript, the number of reads with one unique transcriptomic alignment were counted. The expression level of genes was quantified as corrected ‘reads per kilobase of exon model per million mapped reads’ (cRPKM), a widely used metric to estimate gene expression levels. The expression cutoff was 0.5 cRPKM, corresponding to the transcript of the gene being present if there were ≥10 reads that mapped uniquely to a single genomic locus. Approximately 19,847 Ensembl annotated protein-coding genes were compared to create a gene list of differentially expressed genes. Genes were considered differentially expressed if fold changes in cRPKM was ≥2 in compound-treated versus DMSO-treated samples.

[1] = of 70 AS events, 791 30 µM, 833 2 µM

## O=C(NC(=S)NNC(=O)c1ccccc1O)c1ccc(-c2ccccc2)cc1 [Compound 833, N-([2-(2-hydroxybenzoyl)hydrazino]carbonothioyl}-4-biphenylcarboxamide]
5227833 minus DMSO, mean n=3
  DPSI AGPAT4_1 chr6:161506598-161506735: -3.33%
  DPSI AGPAT4_1 chr6:161507269-161507439: -5.00%
  DPSI APLP2_1 chr11:129498717-129498884: -2.67%
  DPSI APP_1 chr21:26291546-26291602: -0.67%
  DPSI APP_1 chr21:26294201-26294368: -0.67%
  DPSI ATP6V0A1_1 chr17:37919833-37920004: 6.67%
  DPSI CA12_1 chr15:61406400-61406485: 0.67%
  DPSI CA12_1 chr15:61407349-61407382: -2.67%
  DPSI CASP9_1 chr1:15703693-15703840*: -1.33%
  DPSI CAST_1 chr5:96090613-96090669: -3.33%
  DPSI CLSTN1_1 chr1:9720143-9720199: -17.00%
  DPSI CLSTN1_2 chr1:9739126-9739155: -4.67%
  DPSI CRBN_1 chr3:3191846-3191950: 0.00%
  DPSI CRBN_1 chr3:3191950-3191953: -2.00%
  DPSI CTNND1_1 chr11:57318058-57318129: -6.67%
  DPSI DNM1L_1 chr12:32782066-32782143: 7.67%
  DPSI DNM1L_1 chr12:32782465-32782497: -4.33%
  DPSI DRCTNNB1A_1 chr7:22953096-22953391: -8.33%
  DPSI EIF4A2_1 chr7:187988792-187988899: -10.67%
  DPSI EIF4A2_1 chr7:187988899-187988904: -7.67%
  DPSI EIF4H_1 chr7:73242512-73242572: -5.00%
  DPSI ERC1_1 chr12:1091641-1091725: -11.00%
  DPSI EXOC7_1 chr17:71598005-71598035: -3.67%
  DPSI EXOC7_1 chr17:71598819-71598911: -5.67%
  DPSI FAM62B_1 chr7:158238233-158238295: -4.67%
  DPSI FAM104A_1 chr17:68720412-68720474: -5.00%
  DPSI FGFR1OP2_1 chr12:27004715-27004828: -20.67%
  DPSI FIP1L1_1 chr4:53975538-53975646: -14.67%
  DPSI GGCT_1 chr7:30504943-30505080: 3.00%
  DPSI GGCT_1 chr7:30506676-30506822: -0.33%
  DPSI GLK_1 chr2:39388587-39388650: -13.67%
  DPSI GM130_1 chr9:130069293-130069374: -18.33%
  DPSI GRB10_1 chr7:50651400-50651538: 0.67%
  DPSI KIF13A_1 chr6:17879324-17879428: -0.33%
  DPSI MACF1_1 chr1:39616720-39616782: 14.00%
  DPSI MACF1_5 chr1:39719179-39719289: -18.33%
  DPSI MAP3K7_1 chr6:91310992-91311072: 2.67%
  DPSI MARK3_1 chr14:103034592-103034618: -9.00%
  DPSI MARK3_1 chr14:103036246-103036290: -5.33%
  DPSI MBD1_1 chr18:46054554-46054721: -3.33%
  DPSI MBNL2_1 chr13:96807051-96807104: 17.33%
  DPSI MFF_1 chr2:227901637-227901749: -11.67%
  DPSI MRIP_1 chr17:17024646-17024708: -6.33%
  DPSI MVK_1 chr12:108501990-108502134: 15.67%
  DPSI MVK_1 chr12:108503583-108503738: 16.67%
  DPSI NAP1L1_1 chr12:74747418-74747520: -15.67%
  DPSI NAP1L1_1 chr12:74748956-74749041: -18.33%
  DPSI NPHP3_1 chr3:133898264-133898347: -6.67%
  DPSI PDCL_1 chr9:124628716-124628892: 3.67%
  DPSI POLDIP3_1 chr22:41327919-41328006: -17.00%
  DPSI POMT1_1 chr9:133368281-133368521: 4.67%
  DPSI POMT1_1 chr9:133371321-133371428: -10.00%
  DPSI RAI14_1 chr5:34849436-34849522: 2.33%
  DPSI RAN_1 chr12:129923082-129923127: -2.00%
  DPSI RPS24_1 chr10:79467729-79467746: 3.00%
  DPSI SEC24B_1 chr4:110622281-110622386: -18.67%
  DPSI SETD5_1 chr3:9453533-9453572: -3.33%
  DPSI SMN2_1 chr5_h2_hap1:475625-475826: 2.33%
  DPSI SMN2_2 chr5_h2_hap1:466192-466246: -7.33%
  DPSI SPAG9_1 chr17:46408223-46408261: -12.00%
  DPSI SRPK2_1 chr2:104553464-104553557: -9.00%
  DPSI SRPK2_1 chr2:104553930-104554023: 5.67%
  DPSI TPM1_1 chr15:61140450-61140525: 1.00%
  DPSI TPM1_1 chr15:61140965-61141040: -1.00%
  DPSI TRIM37_1 chr17:54433741-54433857: -6.67%
  DPSI ZNF827_1 chr4:146903692-146903724: -17.67%
  DPSI ZNF827_1 chr4:146905581-146905589: 0.00%
5227833 minus DMSO, mean n=3, table row r49
  DPSI NUMB_2 chr14:72815742-72815885: 3.67%
5227833 minus DMSO, mean n=3, table row r63
  DPSI NUMB_2 chr14:72815742-72815885: 6.33%
[1]
  AS events with DPSI ≤ -10%: 10
  AS events with DPSI ≥ 10%: 1
  AS events with P ≤ 0.05: 22
